In ChEMBL document CHEMBL5625266, “Design, synthesis and biological evaluation of novel cyclic malonamide derivatives as selective RIPK1 inhibitors” (Bioorg Med Chem Lett, 2024):
Each block holds one molecule with its values, some of them ahead of it.

How the values were obtained:
[1] = target: T1, Receptor-interacting serine/threonine-protein kinase 1 (Homo sapiens, UniProt Q13546); test: Inhibition of human RIPK1 assessed as inhibition constant by ADP-Glo Kinase assay
T1 sequence (Q13546 whole entry): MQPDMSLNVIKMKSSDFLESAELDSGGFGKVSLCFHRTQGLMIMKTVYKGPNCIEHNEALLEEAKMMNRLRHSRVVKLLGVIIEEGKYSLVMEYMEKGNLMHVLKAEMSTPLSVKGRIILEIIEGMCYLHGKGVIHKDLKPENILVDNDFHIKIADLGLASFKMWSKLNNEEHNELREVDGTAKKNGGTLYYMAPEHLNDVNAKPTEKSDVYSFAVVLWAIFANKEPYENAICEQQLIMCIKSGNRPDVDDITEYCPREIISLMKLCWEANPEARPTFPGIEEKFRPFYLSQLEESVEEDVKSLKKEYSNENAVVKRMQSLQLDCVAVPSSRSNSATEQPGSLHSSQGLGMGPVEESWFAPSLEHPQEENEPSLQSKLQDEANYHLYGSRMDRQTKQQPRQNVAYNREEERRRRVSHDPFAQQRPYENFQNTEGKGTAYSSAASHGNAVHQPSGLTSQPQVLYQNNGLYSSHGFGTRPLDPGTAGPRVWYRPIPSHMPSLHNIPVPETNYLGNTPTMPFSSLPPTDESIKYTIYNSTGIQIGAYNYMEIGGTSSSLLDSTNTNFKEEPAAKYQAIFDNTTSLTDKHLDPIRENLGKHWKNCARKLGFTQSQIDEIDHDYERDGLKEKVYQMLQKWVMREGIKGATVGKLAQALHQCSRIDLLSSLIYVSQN

U-937 = test: Inhibition of necroptosis in human U-937 cells; type: functional, cell-based
[2] = target: Mitogen-activated protein kinase kinase kinase 9 (Homo sapiens) (UniProt P80192); test: Inhibition of MLK1 (unknown origin) at 10 uM relative to control
Mitogen-activated protein kinase kinase kinase 9 (Homo sapiens), sequence (P80192 whole entry, looked up): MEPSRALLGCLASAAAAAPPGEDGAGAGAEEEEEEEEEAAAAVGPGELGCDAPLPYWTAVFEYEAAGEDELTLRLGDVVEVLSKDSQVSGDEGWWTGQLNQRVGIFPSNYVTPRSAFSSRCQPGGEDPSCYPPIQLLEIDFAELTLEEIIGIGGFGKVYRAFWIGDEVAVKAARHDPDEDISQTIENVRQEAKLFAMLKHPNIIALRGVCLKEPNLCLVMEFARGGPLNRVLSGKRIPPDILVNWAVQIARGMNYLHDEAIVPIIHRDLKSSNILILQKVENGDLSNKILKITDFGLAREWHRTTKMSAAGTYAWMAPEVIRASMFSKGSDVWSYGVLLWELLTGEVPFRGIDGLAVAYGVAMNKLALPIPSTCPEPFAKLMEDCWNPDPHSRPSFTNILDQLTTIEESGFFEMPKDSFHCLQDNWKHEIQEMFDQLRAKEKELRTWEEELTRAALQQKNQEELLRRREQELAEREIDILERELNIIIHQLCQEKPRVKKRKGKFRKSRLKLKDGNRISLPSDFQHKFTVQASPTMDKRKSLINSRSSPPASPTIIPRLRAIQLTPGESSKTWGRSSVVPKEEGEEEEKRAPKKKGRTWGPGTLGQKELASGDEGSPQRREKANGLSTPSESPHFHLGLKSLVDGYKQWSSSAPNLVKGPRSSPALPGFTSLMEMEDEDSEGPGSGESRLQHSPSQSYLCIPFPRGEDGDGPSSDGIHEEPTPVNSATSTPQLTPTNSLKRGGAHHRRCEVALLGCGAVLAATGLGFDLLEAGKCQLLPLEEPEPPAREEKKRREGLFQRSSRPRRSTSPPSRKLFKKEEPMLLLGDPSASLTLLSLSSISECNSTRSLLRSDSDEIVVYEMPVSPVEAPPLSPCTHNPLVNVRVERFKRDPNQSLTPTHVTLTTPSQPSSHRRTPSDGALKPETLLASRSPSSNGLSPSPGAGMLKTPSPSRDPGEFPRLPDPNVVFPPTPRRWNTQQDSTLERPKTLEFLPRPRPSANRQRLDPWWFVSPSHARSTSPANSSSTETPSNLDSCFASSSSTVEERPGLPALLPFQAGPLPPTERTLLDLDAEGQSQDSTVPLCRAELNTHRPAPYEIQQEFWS

[3] = target: T2, Receptor-interacting serine/threonine-protein kinase 1 (Homo sapiens) (UniProt Q13546); test: Inhibition of RIPK1 (unknown origin) at 1 uM relative to control
T2 sequence (whole entry): T1 sequence (Q13546 whole entry)

[4] = Stability of the compound in PBS at pH 7.4 measured after 24 hrs; type: physicochemical; conditions: read-out: Stability

Ki [1]: 0.135 µM
SMILES: CN1C(=O)C(C(=O)Nc2cn(Cc3ccccc3)cn2)CCc2ccccc21 (stereo not drawn)

SMILES: CN1C(=O)[C@@H](NC(=O)c2n[nH]c(Cc3ccccc3)n2)COc2ccccc21 [GSK2982772]
IC50 (U-937): 0.00589 µM

SMILES: CN1C(=O)C(C(=O)Nc2cn(Cc3ccccc3)nn2)CCc2ccccc21 (stereo not drawn)
Ki [1]: 0.0589 µM | IC50 (U-937): 0.0794 µM

SMILES: COc1cc2c(cn1)N(C)C(=O)C(C(=O)Nc1cn(Cc3ccccc3)cn1)CC2 (stereo not drawn)
Ki [1]: 0.575 µM | IC50 (U-937): 0.427 µM

SMILES: COc1cc2c(cn1)N(C)C(=O)C(C(=O)Nc1ncc(Cc3ccccc3)s1)CC2 (racemic)
Ki [1]: 0.0525 µM | IC50 (U-937): 0.0575 µM

inhibition [2]: 28% | Ki [1]: 1.45 µM
SMILES: COc1cc2c(cn1)N(C)C(=O)[C@H](C(=O)Nc1ncc(Cc3ccccc3)s1)CC2

SMILES: CN1C(=O)C(C(=O)Nc2ncn(Cc3ccccc3)n2)CCc2ccccc21 (stereo not drawn)
Ki [1]: 0.0437 µM | IC50 (U-937): 0.0617 µM

inhibition [3]: 22% | remaining at 24 h [4]: 14%
SMILES: CN1C(=O)C(C(=O)Nc2nc(Cc3ccccc3)n[nH]2)CCc2ccccc21 (stereo not drawn)

SMILES: CN1C(=O)C(C(=O)Nc2ncc(Cc3ccccc3)o2)CCc2ccccc21 (stereo not drawn)
Ki [1]: 0.2 µM | IC50 (U-937): 0.891 µM

SMILES: COc1cc2c(cn1)N(C)C(=O)[C@@H](C(=O)Nc1ncc(Cc3ccccc3)s1)CC2
Ki [1]: 0.0219 µM | IC50 (U-937): 0.0631 µM

SMILES: CN1C(=O)C(C(=O)Nc2cn(Cc3c(F)cccc3F)cn2)CCc2ccccc21 (stereo not drawn)
Ki [1]: 0.0562 µM | IC50 (U-937): 0.148 µM

SMILES: CN1C(=O)C(C(=O)Nc2cn(Cc3ccccc3)cn2)CCc2ccncc21 (stereo not drawn)
Ki [1]: 0.794 µM | IC50 (U-937): 0.562 µM

SMILES: CN1C(=O)C(C(=O)Nc2cn(Cc3ccccc3)cn2)CCc2cccnc21 (stereo not drawn)
Ki [1]: 0.214 µM | IC50 (U-937): 1.1 µM

SMILES: CN1C(=O)C(C(=O)Nc2ncc(Cc3ccccc3)s2)CCc2ccccc21 (stereo not drawn)
Ki [1]: 0.00191 µM | IC50 (U-937): 0.0112 µM

SMILES: CN1C(=O)C(C(=O)Nc2nnn(Cc3ccccc3)n2)CCc2ccccc21 (stereo not drawn)
Ki [1]: 0.0316 µM | IC50 (U-937): 0.0363 µM
